Where “and” joins values, the source holds several entries; their conditions need not be identical. Identical values can stand only once. Like-named read-outs stand apart in the source and are kept apart here.
Columns and labels:
[1] = Absorption enhancement studies in the rat, intragastric dosing, plasma concentration
Procedure: Based on the solubility data that was reported previously, combinations of solvents were evaluated to study the effect of formulation composition on oral absorption.
Combinations of solvents and surfactants were evaluated in rat, dog and nonhuman primate models at levels appropriate for a potential human oral pharmaceutical product.
The early studies in rats used aqueous dosing solutions.
These formulations included a variety of solvents and co-solvents for evaluation to maximize absorption and form a physicochemically stable liquid. Unless otherwise indicated, the percentages are expressed by weight as a proportion of the total weight of all excipients present in the mixture (i.e. excluding the active ingredient).

[2] = Phase 1 safety and tolerability; type: in vivo, human; conditions: healthy subjects
Procedure: (§1) A two-part, Phase 1, double-blind, placebo-controlled study of the compound of Example 1 was conducted in healthy subjects. Part 1 of the study assessed the safety, tolerability and the pharmacokinetic (PK) and pharmacodynamic (PD) properties of the compound of Example 1 following a single ascending dose. Subjects were enrolled in five sequential cohorts and received the compound of Example 1 (50 mg, 125 mg, 250 mg, 500 mg or 1000 mg; n=6/cohort) or placebo (n=2/cohort) under fasting conditions. To enable a food-effect assessment on exposure, subjects enrolled in Cohort 4 (500 mg or placebo) subsequently received a second dose of the compound of Example 1 following a high-fat breakfast.
Part 2 of the study evaluated the safety, tolerability, PK, and PD of multiple ascending doses of the compound of Example 1. Twelve subjects were administered a 7-day course of the compound of Example 1 (n=10 subjects/cohort received the API and n=2 subjects/cohort received matching placebo) according to the following dose regimens: 100 mg of the compound of Example 1 or placebo every 8 hours (q8h) in Cohort 1; 200 mg of the compound of Example 1 or placebo q8h in Cohort 2; 400 mg of the compound of Example 1 or placebo q8h in Cohort 3 and 800 mg of the compound of Example 1 or placebo q8h in Cohort 4.

[3] = Phase 1 Part 1, single ascending oral dose pharmacokinetics and food effect; type: in vivo, human; conditions: for Tmax: median
Procedure: as §1
A summary of the pharmacokinetic parameters for fasting, single oral doses of 50 to 1000 mg of the compound of Example 1 (Part 1) is presented in Table 16.
Compound concentrations then declined biphasically and were quantifiable through 9 hours postdose in Cohort 1 (50 mg) and 24 hours postdose in Cohorts 4 and 5 (500 and 1000 mg).

[4] = pKa by UV-metric and potentiometric titration; type: physicochemical
Source text: The pKa experiments have been performed by both UV-metric (in aqueous) and potentiometric method (in methanol cosolvents). Nine titrations have been performed for the compound, all from low to high pH (2.0-12.0).

[5] = Aqueous solubility assay in buffer and simulated gastric/intestinal fluids
Procedure: The target concentration in each solution was 100 μM. […] The aqueous solutions were added (1 mL) to the dried samples and mixed at 400 rpm at 37° C. on an orbital plate shaker. […] Samples were prepared in triplicate. Testosterone and verapamil were used as reference compounds.

[6] = Stability and photostability of formulations
Procedure: This is a standard practice in the pharmaceutical industry in order to accelerate any chemical reactions that may occur due to environmental conditions (temperature, oxygen, light). […] If the stability data from the stress studies indicates a potential stability challenge, then further studies are required to identify the stability issue and resolve it.
Initial stability studies were conducted under accelerated conditions. […] Several antioxidants were identified for study. These antioxidants are pharmaceutically acceptable for use in human oral dosage forms and are compatible with the gelatin composition in a soft gelatin capsule.
Stability studies were performed with formulations that were protected from light and formulations exposed to light.

[7] = rat, intragastric 5 mg/Kg, aqueous dosing solution, individual rats 1-4
[8] = 50 mg single oral dose, fasting, GM
[9] = 125 mg single oral dose, fasting, GM
[10] = 250 mg single oral dose, fasting, GM
[11] = 500 mg single oral dose, FASTED, GM
[12] = human, plasma, po, 50 mg, 50 mg single oral dose, fasting, GM
[13] = human, plasma, po, 125 mg, 125 mg single oral dose, fasting, GM
[14] = human, plasma, po, 250 mg, 250 mg single oral dose, fasting, GM
[15] = human, plasma, po, 500 mg, 500 mg single oral dose, FASTED, GM
[16] = human, plasma, po, 500 mg, 500 mg single oral dose, FED (high-fat breakfast), GM
[17] = human, plasma, po, 1000 mg, 1000 mg single oral dose, fasting, GM

C=Cc1cc(C(=O)Nc2ccc(C(=N)N)cc2)c(-c2ccc(C(=O)NCC3CC3)nc2C(=O)O)cc1OC [Example 1, 3-[2-(4-carbamimidoyl-phenylcarbamoyl)-5-methoxy-4-vinyl-phenyl]-6-(cyclopropylmethyl-carbamoyl)-pyridine-2-carboxylic acid]
concentration at 0 min ([1]; rat, in vivo, 5 mg/Kg, Plasma concentration, 0 min, intragastric 5 mg/Kg, aqueous dosing solution, individual rats 1-4): 0 ng/mL | Plasma concentration, 0 min [1, 7]: 0 ng/mL | Plasma concentration, 30 min [1, 7]: 108 ng/mL and <10 ng/mL and 188 ng/mL and 23 ng/mL | Plasma concentration, 1 hr [1, 7]: 88 ng/mL and <10 ng/mL and 130 ng/mL and 30 ng/mL | Plasma concentration, 2 hr [1, 7]: 123 ng/mL and <10 ng/mL and 87 ng/mL and 27 ng/mL | Plasma concentration, 4 hr [1, 7]: 134 ng/mL and <10 ng/mL and 99 ng/mL and 24 ng/mL | Plasma concentration, 8 hr [1, 7]: 48 ng/ml and <10 ng/ml (2×) and 30 ng/ml | Gastrointestinal (GI) absorption ([1]; rats, aqueous dosing solutions): very low or zero | safety and tolerability ([2]; Part 1 (50-1000 mg single) and Part 2 (100-800 mg q8h, 7 days)): generally safe and well tolerated | dose-limiting adverse events ([2]; Part 1 and Part 2): no dose-limiting adverse events | serious adverse events ([2]; Part 1 and Part 2): no serious adverse events | DN AUC0-inf [3, 8]: 1.94 ng·h/mL/mg | DN Cmax [3, 8]: 0.528 ng/mL/mg | DN AUC0-inf [3, 9]: 1.58 ng·h/mL/mg | DN Cmax [3, 9]: 0.432 ng/mL/mg | DN AUC0-inf [3, 10]: 1.41 ng·h/mL/mg | DN Cmax [3, 10]: 0.344 ng/mL/mg | reduction of AUCinf with food v. fasting ([3]; 500 mg single oral dose): 23% | reduction of AUClast with food v. fasting ([3]; 500 mg single oral dose): 20% | reduction of geometric mean Cmax after a high-fat breakfast v. fasting ([3]; 500 mg single oral dose): 47% | DN AUC0-inf [3, 11]: 1.60 ng·h/mL/mg | DN Cmax [3, 11]: 0.311 ng/mL/mg | DN Cmax ([3]; 1000 mg single oral dose, fasting, GM): 0.193 ng/mL/mg | DN AUC0-inf ([3]; 1000 mg single oral dose, fasting, GM, n = 5): 0.983 ng·h/mL/mg | half-life ([3]; human, plasma, oral, 50 mg, Cohort 1 (50 mg single dose), read-out: terminal half-life (converted)): ~3 h | half-life ([3]; human, plasma, oral, 500 mg, Cohort 4 (500 mg single dose), read-out: terminal half-life (converted)): ~15 h | concentration at 12 h ([3]; human, plasma, oral, single doses, read-out: plasma concentrations at 12 hours postdose): < 10 ng/mL | AUC(0-inf) [3, 12]: 96.8 ng·h/mL | AUC(0-t) [3, 12]: 89.6 ng·h/mL | Cmax [3, 12]: 26.4 ng/mL | half-life ([3]; human, plasma, po, 50 mg, 50 mg single oral dose, fasting, GM, read-out: t1/2 (converted)): 2.98 h | Tmax ([3]; human, plasma, po, 50 mg, 50 mg single oral dose, fasting): 1 h | AUC(0-inf) [3, 13]: 197 ng·h/mL | AUC(0-t) [3, 13]: 188 ng·h/mL | Cmax [3, 13]: 54 ng/mL | half-life ([3]; human, plasma, po, 125 mg, 125 mg single oral dose, fasting, GM, read-out: t1/2 (converted)): 4.66 h | Tmax ([3]; human, plasma, po, 125 mg, 125 mg single oral dose, fasting): 2 h | AUC(0-inf) [3, 14]: 353 ng·h/mL | AUC(0-t) [3, 14]: 336 ng·h/mL | Cmax [3, 14]: 85.9 ng/mL | half-life ([3]; human, plasma, po, 250 mg, 250 mg single oral dose, fasting, GM, read-out: t1/2 (converted)): 6.5 h | Tmax ([3]; human, plasma, po, 250 mg, 250 mg single oral dose, fasting): 2 h | AUC(0-inf) [3, 15]: 802 ng·h/mL | AUC(0-t) [3, 15]: 760 ng·h/mL | Cmax [3, 15]: 155 ng/mL | half-life ([3]; human, plasma, po, 500 mg, 500 mg single oral dose, FASTED, GM, read-out: t1/2 (converted)): 15.4 h | Tmax ([3]; human, plasma, po, 500 mg, 500 mg single oral dose, FASTED): 2 h | AUC(0-t) [3, 16]: 586 ng·h/mL | Cmax [3, 16]: 82.1 ng/mL | AUC(0-inf) ([3]; human, plasma, po, 500 mg, 500 mg single oral dose, FED (high-fat breakfast), GM, n = 5): 642 ng·h/mL | half-life ([3]; human, plasma, po, 500 mg, 500 mg single oral dose, FED (high-fat breakfast), GM, n = 5, sampling to 96 hours, read-out: t1/2 (converted)): 18.9 h | Tmax ([3]; human, plasma, po, 500 mg, 500 mg single oral dose, FED (high-fat breakfast)): 2.5 h | AUC(0-t) [3, 17]: 981 ng·h/mL | Cmax [3, 17]: 193 ng/mL | AUC(0-inf) ([3]; human, plasma, po, 1000 mg, 1000 mg single oral dose, fasting, GM, n = 5): 983 ng·h/mL | half-life ([3]; human, plasma, po, 1000 mg, 1000 mg single oral dose, fasting, GM, n = 5, sampling to 96 hours, read-out: t1/2 (converted)): 12.3 h | Tmax ([3]; human, plasma, po, 1000 mg, 1000 mg single oral dose, fasting): 2 h | pKa ([4]; aqueous (UV-metric), methanol cosolvents (potentiometric), no higher pKa observed by potentiometric method, read-out: higher pKa as reported): > 11 | pKa ([4]; aqueous (UV-metric), methanol cosolvents (potentiometric), no lower pKa observed by potentiometric method, read-out: lower pKa as reported): < 3 | pKa ([4]; aqueous, UV-metric method, aqueous, read-out: lower pKa): 2.31 ± 0.15 | solubility at 24 h ([5]; 37 °C, fassgf or other biorelevant, thermodynamic from solid, Observed Solubility, Target 100 μM, Fasted-State SGF, 24 hours): 109 µM | solubility at 24 h ([5]; 37 °C, fassgf or other biorelevant, thermodynamic from solid, Observed Solubility, Target 100 μM, Fed-State SGF, 24 hours): 99 µM | solubility at 24 h ([5]; 37 °C, fassif, thermodynamic from solid, Observed Solubility, Target 100 μM, Fasted-State SIF, 24 hours): 111 µM | solubility at 24 h ([5]; 37 °C, fessif, thermodynamic from solid, Observed Solubility, Target 100 μM, Fed-State SIF, 24 hours): 119 µM | solubility at 24 h ([5]; 37 °C, pH 7.4, aqueous buffer, thermodynamic from solid, Observed Solubility, Target 100 μM, 0.1M phosphate buffer pH 7.4, 37° C., 24 hours): 118 µM | solubility at 24 h ([5]; solubility, aqueous/physiological fluids): 100 µg/mL | chemical stability under accelerated conditions ([6]; combined with candidate formulations, exposed to light, oxygen and elevated temperatures): underwent degradation | photostability ([6]; exposed to ultraviolet (UV) or white (CW) light): demonstrated photodegradation
